Data taken from US20250122219A1 (priority 2023, published 2025).

Key:
[1] = system: HIV-1 (IIIB); assay: Antiviral assay in MT-4 cells; assay type: cell-based; details: Human immunodeficiency virus 1, MT4, 120 h; HIV-1 IIIB in MT-4 cells, 5 days incubation, Cell Titer Glo; read-out: MT4 EC50
Procedure, shortened: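 Read-out: CellTiter-Glo luminescence after 5 days at 37 °C, reflecting survival of MT-4 cells infected with HIV-1 IIIB (1:250 fresh stock dilution) versus mock-infected. Compounds serially diluted into RPMI with 10% FBS; AZT at 5 μM served as positive control.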

[2] = Cytotoxicity assay in MT-4 cells; assay type: cell-based; details: human; uninfected MT-4 cells, 5 days incubation, Cell Titer Glo; read-out: MT4 CC50
Procedure, shortened: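 Viability read by Cell Titer Glo luminescence after 5 days at 37 °C. MT-4 cells, not infected, in complete RPMI (10% FBS), received compound dilution series. Base cytotoxicity set with […] puromycin.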

EC50 [1] [nM]	Structure (SMILES)	CC50 at 5 days [2] [nM]
0.17	COC1=NO[C@@]2(CC[C@H](C)N3C[C@H]2n2cc(C(=O)NCc4ccc(F)cc4F)c(=O)c(OC(=O)OCCC(C)C)c2C3=O)C1 [Example 151, (3′S,5S,7′R)-10′-((2,4-difluorobenzyl)carbamoyl)-3-methoxy-3′-methyl-1′,11′-dioxo-1′,4′,5′,11′-tetrahydro-3′H,4H,7′H-spiro[isoxazole-5,6′-[2,7]methanopyrido[1,2-a][1,4]diazonin]-12′-yl isopentyl carbonate]	18500
27.2	CCCCCCCCCCCCCCCCCC(=O)OCOc1c2n(cc(C(=O)NCc3ccc(F)cc3F)c1=O)[C@@H]1CN(C2=O)[C@@H](C)CC[C@]12CC(OC)=NO2 [Example 106, (((3′S,5S,7′R)-10′-((2,4-difluorobenzyl)carbamoyl)-3-methoxy-3′-methyl-1′,11′-dioxo-1′,4′,5′,11′-tetrahydro-3′H,4H,7′H-spiro[isoxazole-5,6′-[2,7]methanopyrido[1,2-a][1,4]diazonin]-12′-yl)oxy)methyl stearate]	≥ 50000
1.3	COC(=O)N[C@H](C(=O)Oc1c2n(cc(C(=O)NCc3ccc(F)cc3F)c1=O)[C@@H]1CN(C2=O)[C@@H](C)CC[C@]12CC(OC)=NO2)C(C)C [Example 80]	19800
1.54	CC1=NO[C@@]2(CC[C@H](C)N3C[C@H]2n2cc(C(=O)NCc4ccc(F)cc4F)c(=O)c(OC(=O)CCC(C)C)c2C3=O)C1 [Example 57, (3′S,5S,7′R)-10′-((2,4-difluorobenzyl)carbamoyl)-3,3′-dimethyl-1′,11′-dioxo-1′,4′,5′,11′-tetrahydro-3′H,4H,7′H-spiro[isoxazole-5,6′-[2,7]methanopyrido[1,2-a][1,4]diazonin]-12′-yl 4-methylpentanoate]	23100
3.64	CCCCCCCCCCCCOC(=O)Oc1c2n(cc(C(=O)NCc3ccc(F)cc3F)c1=O)[C@@H]1CN(C2=O)[C@@H](C)CC[C@]12CC(OC)=NO2 [Example 142, (3′S,5S,7′R)-10′-((2,4-difluorobenzyl)carbamoyl)-3-methoxy-3′-methyl-1′,11′-dioxo-1′,4′,5′,11′-tetrahydro-3′H,4H,7′H-spiro[isoxazole-5,6′-[2,7]methanopyrido[1,2-a][1,4]diazonin]-12′-yl dodecyl carbonate]	36400
0.496	CCCCCCCCOC(=O)Oc1c2n(cc(C(=O)NCc3ccc(F)cc3F)c1=O)[C@@H]1CN(C2=O)[C@@H](C)CC[C@]12CC(OC)=NO2 [Example 136, (3′S,5S,7′R)-10′-((2,4-difluorobenzyl)carbamoyl)-3-methoxy-3′-methyl-1′,11′-dioxo-1′,4′,5′,11′-tetrahydro-3′H,4H,7′H-spiro[isoxazole-5,6′-[2,7]methanopyrido[1,2-a][1,4]diazonin]-12′-yl octyl carbonate]	23500
22.5	CCCCCCCCCCCCCCCC(=O)OCOc1c2n(cc(C(=O)NCc3ccc(F)cc3F)c1=O)[C@@H]1CN(C2=O)[C@@H](C)CC[C@]12CC(C)=NO2 [Example 105, (((3′S,5S,7′R)-10′-((2,4-difluorobenzyl)carbamoyl)-3,3′-dimethyl-1′,11′-dioxo-1′,4′,5′,11′-tetrahydro-3′H,4H,7′H-spiro[isoxazole-5,6′-[2,7]methanopyrido[1,2-a][1,4]diazonin]-12′-yl)oxy)methyl palmitate]	≥ 50000
2.76	CC1=NO[C@@]2(CC[C@H](C)N3C[C@H]2n2cc(C(=O)NCc4ccc(F)cc4F)c(=O)c(OCOC(=O)C(C)(C)C)c2C3=O)C1 [Example 18, (((3′S,5S,7′R)-10′-((2,4-difluorobenzyl)carbamoyl)-3,3′-dimethyl-1′,11′-dioxo-1′,4′,5′,11′-tetrahydro-3′H,4H,7′H-spiro[isoxazole-5,6′-[2,7]methanopyrido[1,2-a][1,4]diazonin]-12′-yl)oxy)methyl pivalate]	20100
